Data taken from publication PMC8152690, “Biosynthetic access to the rare antiarose sugar via an unusual reductase-epimerase” (Chemical Science, 2020).

What was measured:
RblE = system: T1, RblE; assay: spectrophotometric assay, decrease of NADPH absorbance; format: biochemical
T1 construct: rubterolone gene cluster

RubS5 = target: T2, RubS5 (Streptomyces sp. KIB-H033, UniProt A0A1I9S3Q5); assay: HPLC and 1H-NMR of product; format: biochemical; conditions: sugar phosphate co-substrate (D-glucose-1-phosphate in text, D-glucose-6-phosphate in Fig. 2 legend)
T2 construct: expressed and purified; rubrolone gene cluster
T2 sequence (A0A1I9S3Q5 1-289): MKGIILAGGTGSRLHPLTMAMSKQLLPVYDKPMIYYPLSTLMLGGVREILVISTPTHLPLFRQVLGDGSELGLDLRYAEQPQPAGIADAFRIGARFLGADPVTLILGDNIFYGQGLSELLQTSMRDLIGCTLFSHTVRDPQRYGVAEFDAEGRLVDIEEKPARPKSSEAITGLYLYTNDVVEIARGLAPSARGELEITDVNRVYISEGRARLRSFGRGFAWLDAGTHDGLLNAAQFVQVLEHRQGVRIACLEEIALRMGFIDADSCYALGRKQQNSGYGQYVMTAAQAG

Km (RblE) [µM]	SMILES	HPLC and 1H-NMR of product (RubS5)
35	Cc1cn([C@H]2C[C@H](O)[C@@H](COP(=O)(O)OP(=O)(O)O[C@H]3O[C@H](C)C(=O)[C@H](O)[C@H]3O)O2)c(=O)[nH]c1=O [compound 1, TDP-4-keto-6-deoxy-D-glucose]	
	Cc1cn([C@H]2C[C@H](O)[C@@H](COP(=O)(O)OP(=O)(O)OP(=O)(O)O)O2)c(=O)[nH]c1=O [TTP]	buffer with TTP and D-glucose-6-phosphate. (b) RubS5 reaction
